Series [1] concerns the target T1, Alpha-1D adrenergic receptor (Homo sapiens, UniProt P25100). Also: in other assays of this panel Not Active means under 50% inhibition at 10 µM.
T1 sequence (P25100 whole entry): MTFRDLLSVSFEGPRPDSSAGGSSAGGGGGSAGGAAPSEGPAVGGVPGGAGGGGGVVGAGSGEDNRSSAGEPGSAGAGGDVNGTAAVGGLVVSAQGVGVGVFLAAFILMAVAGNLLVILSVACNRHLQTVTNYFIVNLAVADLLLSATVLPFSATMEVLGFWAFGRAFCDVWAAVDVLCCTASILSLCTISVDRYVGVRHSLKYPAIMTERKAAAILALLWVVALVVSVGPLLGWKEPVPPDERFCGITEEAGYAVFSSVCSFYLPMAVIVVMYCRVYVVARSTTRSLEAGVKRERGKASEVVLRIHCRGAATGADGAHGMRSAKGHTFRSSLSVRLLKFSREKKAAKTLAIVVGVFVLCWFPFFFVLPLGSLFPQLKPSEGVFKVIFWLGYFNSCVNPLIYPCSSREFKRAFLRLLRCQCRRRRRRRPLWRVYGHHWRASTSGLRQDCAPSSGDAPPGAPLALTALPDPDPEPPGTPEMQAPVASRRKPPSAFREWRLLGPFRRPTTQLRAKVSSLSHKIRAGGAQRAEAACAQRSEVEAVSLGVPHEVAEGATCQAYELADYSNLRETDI
The format is cell membranes, HEK293, Membrane.

A short description of series [2]: DRUGMATRIX: Purinergic P2X radioligand binding (ligand: [3H] alpha, beta-Methylene-ATP). The format is cell membranes, Oryctolagus cuniculus, New Zealand albino, Urinary bladder, Membrane. Particulars: Not Active = under 50% inhibition at 10 µM.
Series [3] deals with T2, B2 bradykinin receptor (Homo sapiens, UniProt P30411).
T2 sequence (P30411 whole entry): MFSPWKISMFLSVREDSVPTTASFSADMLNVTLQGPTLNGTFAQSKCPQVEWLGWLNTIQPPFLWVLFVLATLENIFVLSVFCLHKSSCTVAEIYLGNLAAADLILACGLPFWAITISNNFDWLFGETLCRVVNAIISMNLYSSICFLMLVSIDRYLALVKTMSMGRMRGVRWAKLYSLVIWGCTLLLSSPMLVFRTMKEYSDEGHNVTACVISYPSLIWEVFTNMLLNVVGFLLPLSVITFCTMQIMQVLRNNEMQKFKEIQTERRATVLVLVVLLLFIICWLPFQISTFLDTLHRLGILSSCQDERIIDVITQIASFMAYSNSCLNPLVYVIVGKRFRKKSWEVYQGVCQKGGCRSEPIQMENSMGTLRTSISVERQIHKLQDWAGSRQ
The format is cell membranes, Membrane. Particulars: chem-1.

Series [4] concerns the target Vasopressin V1a receptor (Homo sapiens, UniProt P37288). The format is cell membranes, Membrane. Particulars: hek293. Also: in other assays of this panel Not Active means under 50% inhibition at 10 µM.
The nature of series [5]: DRUGMATRIX: Phosphodiesterase PDE3 enzyme inhibition (substrate: [3H]cAMP + cAMP). Format: tissue-based, Homo sapiens. Particulars: platelet; Not Active = under 50% inhibition at 10 µM.
The nature of series [6]: DRUGMATRIX: Serotonin (5-Hydroxytryptamine) 5-HT3 radioligand binding (ligand: [3H] GR-65630). Format: cell membranes, Membrane. Particulars: hek293; Not Active = under 50% inhibition at 10 µM.
The target in series [7] is Cytochrome P450 2C19 (Homo sapiens, UniProt P33261). As to conditions: bti-tn-5b1-4. Also: in other assays of this panel Not Active means under 50% inhibition at 10 µM.
Chain of Cytochrome P450 2C19 (P33261 whole entry): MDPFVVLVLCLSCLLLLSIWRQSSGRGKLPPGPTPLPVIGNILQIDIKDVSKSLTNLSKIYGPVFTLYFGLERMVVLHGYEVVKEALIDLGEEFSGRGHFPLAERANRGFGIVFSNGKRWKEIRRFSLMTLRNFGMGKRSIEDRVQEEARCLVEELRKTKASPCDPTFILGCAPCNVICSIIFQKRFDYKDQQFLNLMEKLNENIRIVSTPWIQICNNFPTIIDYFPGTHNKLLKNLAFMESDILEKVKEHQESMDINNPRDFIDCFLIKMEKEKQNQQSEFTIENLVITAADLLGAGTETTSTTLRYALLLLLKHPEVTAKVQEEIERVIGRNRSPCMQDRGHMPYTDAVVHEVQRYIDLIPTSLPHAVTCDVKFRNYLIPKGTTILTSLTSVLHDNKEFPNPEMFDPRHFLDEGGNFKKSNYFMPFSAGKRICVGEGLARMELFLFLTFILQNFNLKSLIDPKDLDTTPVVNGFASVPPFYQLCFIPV
A short description of series [8]: DRUGMATRIX: Nicotinic Acetylcholine radioligand binding (ligand: [125I] Epibatidine). The format is cell membranes, Membrane. As to conditions: imr-32; Not Active = under 50% inhibition at 10 µM.

Chain of Vasopressin V1a receptor (P37288 whole entry): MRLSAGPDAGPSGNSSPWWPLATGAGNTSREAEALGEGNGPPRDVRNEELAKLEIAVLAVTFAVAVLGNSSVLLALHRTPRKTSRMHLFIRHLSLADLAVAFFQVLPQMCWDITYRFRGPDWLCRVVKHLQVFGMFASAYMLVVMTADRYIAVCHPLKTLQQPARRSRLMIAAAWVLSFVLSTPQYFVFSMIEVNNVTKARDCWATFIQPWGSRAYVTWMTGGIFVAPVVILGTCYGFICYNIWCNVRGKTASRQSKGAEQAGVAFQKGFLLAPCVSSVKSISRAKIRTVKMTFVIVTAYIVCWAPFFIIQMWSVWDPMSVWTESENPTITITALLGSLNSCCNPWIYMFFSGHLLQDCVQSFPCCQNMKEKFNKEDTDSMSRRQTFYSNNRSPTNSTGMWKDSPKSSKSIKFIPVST

`CN(C)c1ccc(C(=C2C=CC(=[N+](C)C)C=C2)c2ccc(N(C)C)cc2)cc1.[Cl-]` [GENTIAN VIOLET]: the IC50 (in general, the concentration that inhibits the measured activity by half) in series [1] (read-out: IC50) was 1980 nM; in series [2], “Not Active”; in series [3], “Not Active”; in series [4], “Not Active”; in series [5] it was “Not Active”; in series [6], “Not Active”. The IC50 entry in series [7] and in series [8] was “Not Active” each time. The Ki (as a rule, a measure of affinity in units of concentration, obtained from inhibition or displacement) in series [1] (read-out: Ki) is 973 nM; in series [2] it was “Not Active”; in series [5] it was “Not Active”; in series [6] it was “Not Active”; in series [7], “Not Active”; in series [8], “Not Active”.

Turning to `Cc1ccc(S(=O)(=O)NC(=O)NN2CC3CCCC3C2)cc1` (stereo not given) [GLICLAZIDE], the IC50 entry in series [1] (hek293), in series [2], in series [3], in series [4], in series [5] and in series [6] was “Not Active” throughout. The IC50 result in series [7] and in series [8] was “Not Active” throughout. In addition, the Ki result in series [2], in series [5], in series [6], in series [7] and in series [8] was “Not Active” each time.

`CC(C)Cc1ccc(C(C)C(=O)O)cc1` (stereo not given) [IBUPROFEN]: the IC50 result in series [1] (hek293), in series [2], in series [3], in series [4], in series [5] and in series [6] was “Not Active” each time. For the same molecule, the IC50 entry in series [7] and in series [8] was “Not Active” each time. Further, the Ki entry in series [2], in series [5], in series [6], in series [7] and in series [8] was “Not Active” in each case.

On to `COc1ccc2c(c1)c(CC(=O)O)c(C)n2C(=O)c1ccc(Cl)cc1` [INDOMETHACIN], for which the IC50 result in series [1] (hek293), in series [2], in series [3], in series [4], in series [5] and in series [6] was “Not Active” in each case. Further, the IC50 entry in series [7] and in series [8] was “Not Active” in each case. Further, the Ki entry in series [2], in series [5], in series [6], in series [7] and in series [8] was “Not Active” in each case.

Consider `CCc1c2c(nc3ccc(OC(=O)N4CCC(N5CCCCC5)CC4)cc13)-c1cc3c(c(=O)n1C2)COC(=O)[C@]3(O)CC` [IRINOTECAN], for which the IC50 result in series [1] (hek293), in series [2], in series [3], in series [4], in series [5] and in series [6] was “Not Active” in each case. The IC50 result in series [7] and in series [8] was “Not Active” in each case. The Ki entry in series [2], in series [5], in series [6], in series [7] and in series [8] was “Not Active” each time.

Take `CC(C(=O)O)c1cccc(C(=O)c2ccccc2)c1` (stereo not given) [KETOPROFEN]: the IC50 entry in series [1] (hek293), in series [2], in series [3], in series [4], in series [5] and in series [6] was “Not Active” in each case. In addition, the IC50 entry in series [7] and in series [8] was “Not Active” in each case. Moreover, the Ki entry in series [2], in series [5], in series [6], in series [7] and in series [8] was “Not Active” in each case.

As for `Nc1ccn([C@@H]2CS[C@H](CO)O2)c(=O)n1` [LAMIVUDINE], the IC50 entry in series [1] (hek293), in series [2], in series [3], in series [4], in series [5] and in series [6] was “Not Active” in each case. Moreover, the IC50 result in series [7] and in series [8] was “Not Active” in each case. Further, the Ki result in series [2], in series [5], in series [6], in series [7] and in series [8] was “Not Active” throughout.

Turning to `O=S(=O)([O-])CCS.[Na+]` [MESNA], the IC50 entry in series [1] (hek293), in series [2], in series [3], in series [4], in series [5] and in series [6] was “Not Active” throughout. For the same molecule, the IC50 entry in series [7] and in series [8] was “Not Active” throughout. For the same molecule, the Ki result in series [2], in series [5], in series [6], in series [7] and in series [8] was “Not Active” each time.

In the case of `C#C[C@]1(O)CC[C@H]2[C@@H]3CCc4cc(OC)ccc4[C@H]3CC[C@@]21C` [MESTRANOL], the IC50 entry in series [1] (hek293), in series [2], in series [3], in series [4], in series [5] and in series [6] was “Not Active” in each case. Further, the IC50 result in series [7] and in series [8] was “Not Active” each time. For the same molecule, the Ki result in series [2], in series [5], in series [6], in series [7] and in series [8] was “Not Active” in each case.

For `CC(=O)Nc1cccc(O)c1` [METACETAMOL], the IC50 entry in series [1] (hek293), in series [2], in series [3], in series [4], in series [5] and in series [6] was “Not Active” each time. The IC50 entry in series [7] and in series [8] was “Not Active” in each case. Besides, the Ki result in series [2], in series [5], in series [6], in series [7] and in series [8] was “Not Active” in each case.

Turning to `Cc1ncc([N+](=O)[O-])n1CCO` [METRONIDAZOLE], the IC50 result in series [1] (hek293), in series [2], in series [3], in series [4], in series [5] and in series [6] was “Not Active” throughout. For the same molecule, the half-inhibitory concentration (IC50) entry in series [7] and in series [8] was “Not Active” throughout. The Ki entry in series [2], in series [5], in series [6], in series [7] and in series [8] was “Not Active” each time.

For `CC(C)(C(=O)c1cccnc1)c1cccnc1` [METYRAPONE], the IC50 result in series [1] (hek293), in series [2], in series [3], in series [4], in series [5] and in series [6] was “Not Active” throughout. The IC50 result in series [7] and in series [8] was “Not Active” each time. The Ki result in series [2], in series [5], in series [6], in series [7] and in series [8] was “Not Active” throughout.

On to `Oc1ccc(OCc2ccccc2)cc1` [MONOBENZONE], for which the IC50 result in series [1] (hek293), in series [2], in series [3], in series [4], in series [5] and in series [6] was “Not Active” each time. For the same molecule, the IC50 result in series [7] and in series [8] was “Not Active” throughout. The Ki result in series [2], in series [5], in series [6], in series [7] and in series [8] was “Not Active” each time.

Values taken from ChEMBL document CHEMBL1909046, “DrugMatrix in vitro pharmacology data”.
